# Data taken from ChEMBL document CHEMBL4261649, “Design and synthesis of boron containing monosaccharides by the hydroboration of d-glucal for use in boron neutron capture therapy (BNCT)” (Bioorg Med Chem, 2018).
# The source made the active and inactive calls. The rule behind the calls is not given here.
# System: A549
# Test: Cytotoxicity against human A549 cells assessed as reduction in cell viability up to 1600 uM after 16 hrs by MTT assay
# Format: functional, cell-based
# Details: not given
row,SMILES,Activity
1,CC1(C)OB([C@H]2CO[C@H](CO)[C@@H](O)[C@@H]2O)OC1(C)C,Active
2,OC[C@H]1OC[C@H](B2OCCCO2)[C@@H](O)[C@@H]1O,Active
3,N[C@@H](Cc1ccc(B(O)O)cc1)C(=O)O,Active
4,OC[C@H]1OC[C@H](B2OC3(CCCCC3)C3(CCCCC3)O2)[C@@H](O)[C@@H]1O,Active
5,CC1CC(C)OB([C@H]2CO[C@H](CO)[C@@H](O)[C@@H]2O)O1 (stereo partly drawn),Active
6,OC[C@H]1OC[C@H](B(O)O)[C@@H](O)[C@@H]1O,Active

# System: hexokinase
# Test: Substrate activity at hexokinase (unknown origin) assessed as compound phosphorylation after 5 days in presence of ATP by 31-P NMR spectroscopic analysis
# Format: ADME
# Details: human, hexokinase (isolated enzyme); read-out: Activity
row,SMILES,metabolised at 120 h [%]
1,O=P(O)(O)OC[C@H]1OC(O)[C@H](O)[C@@H](O)[C@@H]1O (stereo partly drawn),19

# System: not listed separately
# Test: Drug uptake in human A549 cells at 30 uM after 7 to 24 hrs under hypoxic condition by ICP-MS analysis
# Format: ADME, cell-based
# Details: a549, 30 µM
row,SMILES,Drug uptake
1,c1ccc(B2OC3(CCCCC3)C3(CCCCC3)O2)c(CN2CCNCCNCCNCC2)c1,Active
2,N[C@@H](Cc1ccc(B(O)O)cc1)C(=O)O,Active
3,OC[C@H]1OC[C@H](B2OC3(CCCCC3)C3(CCCCC3)O2)[C@@H](O)[C@@H]1O,Active

# Next, values leading:
row,Drug uptake,SMILES
1,Active,CC1(C)OB([C@H]2CO[C@H](CO)[C@@H](O)[C@@H]2O)OC1(C)C
2,Active,OC[C@H]1OC[C@H](B(O)O)[C@@H](O)[C@@H]1O

# System: not listed separately
# Test: Drug uptake in human HeLaS3 cells assessed per cell at 30 uM after 7 hrs under hypoxic condition by ICP-MS analysis
# Format: ADME, cell-based
# Details: hela s3, 7 h
row,SMILES,Drug uptake [fmol]
1,OC[C@H]1OC[C@H](B(O)O)[C@@H](O)[C@@H]1O,0.4

# System: not listed separately
# Test: (§1) Substrate activity at hexokinase (unknown origin) assessed as compound phosphorylation after 1 days in presence of ATP by 31-P NMR spectroscopic analysis
# Format: ADME
# Details: human, 24 h
row,SMILES,Activity
1,CC1(C)OB([C@H]2CO[C@H](CO)[C@@H](O)[C@@H]2O)OC1(C)C,Not Active
2,O=P(O)(O)OC[C@H]1OC(O)[C@H](O)[C@@H](O)[C@@H]1O (stereo partly drawn),Active
3,OC[C@H]1OC[C@H](B(O)O)[C@@H](O)[C@@H]1O,Active

# System: hexokinase
# Test: as §1
# Format: ADME
# Details: human, hexokinase (isolated enzyme); read-out: Activity
row,SMILES,metabolised at 24 h [%]
1,OC[C@H]1OC(O)[C@H](O)[C@@H](O)[C@@H]1O (stereo partly drawn) [DEXTROSE],97

# System: HeLa S3
# Test: Cytotoxicity against human HeLaS3 cells assessed as reduction in cell viability up to 1600 uM after 16 hrs by MTT assay
# Format: functional, cell-based
# Details: not given
row,SMILES,Activity
1,CC1(C)OB([C@H]2CO[C@H](CO)[C@@H](O)[C@@H]2O)OC1(C)C,Active
2,OC[C@H]1OC[C@H](B2OCCCO2)[C@@H](O)[C@@H]1O,Active
3,N[C@@H](Cc1ccc(B(O)O)cc1)C(=O)O,Active
4,OC[C@H]1OC[C@H](B2OC3(CCCCC3)C3(CCCCC3)O2)[C@@H](O)[C@@H]1O,Active
5,CC1CC(C)OB([C@H]2CO[C@H](CO)[C@@H](O)[C@@H]2O)O1 (stereo partly drawn),Active
6,OC[C@H]1OC[C@H](B(O)O)[C@@H](O)[C@@H]1O,Active

# System: not listed separately
# Test: Drug uptake in human A549 cells at 30 uM after 7 to 24 hrs under normoxic condition by ICP-MS analysis
# Format: ADME, cell-based
# Details: a549, 30 µM
row,SMILES,Drug uptake
1,c1ccc(B2OC3(CCCCC3)C3(CCCCC3)O2)c(CN2CCNCCNCCNCC2)c1,Active
2,N[C@@H](Cc1ccc(B(O)O)cc1)C(=O)O,Active
3,OC[C@H]1OC[C@H](B2OC3(CCCCC3)C3(CCCCC3)O2)[C@@H](O)[C@@H]1O,Active

# The next lines start with the values.
row,Drug uptake,SMILES
1,Active,CC1(C)OB([C@H]2CO[C@H](CO)[C@@H](O)[C@@H]2O)OC1(C)C
2,Active,OC[C@H]1OC[C@H](B2OCCCO2)[C@@H](O)[C@@H]1O
3,Active,CC1CC(C)OB([C@H]2CO[C@H](CO)[C@@H](O)[C@@H]2O)O1 (stereo partly drawn)
4,Active,OC[C@H]1OC[C@H](B(O)O)[C@@H](O)[C@@H]1O

# System: not listed separately
# Test: Drug uptake in human HeLaS3 cells at 30 uM after 7 to 24 hrs under hypoxic condition by ICP-MS analysis
# Format: ADME, cell-based
# Details: hela s3, 30 µM
row,SMILES,Drug uptake
1,c1ccc(B2OC3(CCCCC3)C3(CCCCC3)O2)c(CN2CCNCCNCCNCC2)c1,Active
2,N[C@@H](Cc1ccc(B(O)O)cc1)C(=O)O,Active
3,OC[C@H]1OC[C@H](B2OC3(CCCCC3)C3(CCCCC3)O2)[C@@H](O)[C@@H]1O,Active

# The remaining lines, values ahead:
row,Drug uptake,SMILES
1,Active,CC1(C)OB([C@H]2CO[C@H](CO)[C@@H](O)[C@@H]2O)OC1(C)C
2,Active,OC[C@H]1OC[C@H](B(O)O)[C@@H](O)[C@@H]1O

# System: not listed separately
# Test: Drug uptake in human HeLaS3 cells assessed per cell at 30 uM after 7 hrs under normoxic condition by ICP-MS analysis
# Format: ADME, cell-based
# Details: hela s3, 7 h
row,SMILES,Drug uptake [fmol]
1,OC[C@H]1OC[C@H](B(O)O)[C@@H](O)[C@@H]1O,0.3

# System: not listed separately
# Test: Drug uptake in human HeLaS3 cells at 30 uM after 7 to 24 hrs under normoxic condition by ICP-MS analysis
# Format: ADME, cell-based
# Details: hela s3, 30 µM
row,SMILES,Drug uptake
1,c1ccc(B2OC3(CCCCC3)C3(CCCCC3)O2)c(CN2CCNCCNCCNCC2)c1,Active
2,N[C@@H](Cc1ccc(B(O)O)cc1)C(=O)O,Active
3,OC[C@H]1OC[C@H](B2OC3(CCCCC3)C3(CCCCC3)O2)[C@@H](O)[C@@H]1O,Active

# More lines, now with the values ahead:
row,Drug uptake,SMILES
1,Active,CC1(C)OB([C@H]2CO[C@H](CO)[C@@H](O)[C@@H]2O)OC1(C)C
2,Active,OC[C@H]1OC[C@H](B2OCCCO2)[C@@H](O)[C@@H]1O
3,Active,CC1CC(C)OB([C@H]2CO[C@H](CO)[C@@H](O)[C@@H]2O)O1 (stereo partly drawn)
4,Active,OC[C@H]1OC[C@H](B(O)O)[C@@H](O)[C@@H]1O
